Test results taken from PMC7180948, “New Insights into 4-Anilinoquinazolines as Inhibitors of Cardiac Troponin I–Interacting Kinase (TNNi3K)” (Molecules, 2020).

Assays:
Experiment in all cases: biochemical
Set-up in all cases: KINOMEscan competition binding panel (Eurofins DiscoverX), single concentration, % inhibition
SRPK3 = SRPK3 (Homo sapiens, UniProt Q9UPE1); conditions: read-out: 7 at 1 µM % inhibition
Method in brief: (§1)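 Kinome-wide profiling (KINOMEscan, >400 human kinases) was run at 1 µM compound.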

HIPK4 = HIPK4 (Homo sapiens, UniProt Q8NE63); conditions: read-out: 7 at 1 µM % inhibition
HIPK4, sequence (Q8NE63 whole entry): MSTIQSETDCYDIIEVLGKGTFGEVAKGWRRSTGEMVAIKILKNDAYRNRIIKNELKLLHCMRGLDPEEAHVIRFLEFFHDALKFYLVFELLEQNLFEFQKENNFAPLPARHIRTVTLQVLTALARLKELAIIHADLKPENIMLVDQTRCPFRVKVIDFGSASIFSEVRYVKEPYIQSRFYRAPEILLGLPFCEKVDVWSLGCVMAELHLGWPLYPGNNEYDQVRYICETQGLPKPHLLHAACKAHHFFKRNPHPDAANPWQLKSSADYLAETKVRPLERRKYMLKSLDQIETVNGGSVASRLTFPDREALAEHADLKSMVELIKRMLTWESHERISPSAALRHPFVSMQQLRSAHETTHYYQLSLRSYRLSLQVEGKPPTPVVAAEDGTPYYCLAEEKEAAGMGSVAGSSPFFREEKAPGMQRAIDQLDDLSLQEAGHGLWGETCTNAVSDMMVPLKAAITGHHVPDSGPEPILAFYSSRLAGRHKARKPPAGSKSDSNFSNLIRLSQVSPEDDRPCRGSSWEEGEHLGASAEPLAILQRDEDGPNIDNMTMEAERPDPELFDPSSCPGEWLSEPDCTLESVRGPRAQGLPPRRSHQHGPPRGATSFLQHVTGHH
Method in brief: as §1

VPS34 = target: T1, VPS34 (Homo sapiens, UniProt Q8NEB9); conditions: read-out: 7 at 1 µM % inhibition
T1 construct: gene PIK3C3
Method in brief: as §1

MERTK = MERTK (Homo sapiens, UniProt Q12866); conditions: read-out: 7 at 1 µM % inhibition
MERTK, sequence (Q12866 whole entry): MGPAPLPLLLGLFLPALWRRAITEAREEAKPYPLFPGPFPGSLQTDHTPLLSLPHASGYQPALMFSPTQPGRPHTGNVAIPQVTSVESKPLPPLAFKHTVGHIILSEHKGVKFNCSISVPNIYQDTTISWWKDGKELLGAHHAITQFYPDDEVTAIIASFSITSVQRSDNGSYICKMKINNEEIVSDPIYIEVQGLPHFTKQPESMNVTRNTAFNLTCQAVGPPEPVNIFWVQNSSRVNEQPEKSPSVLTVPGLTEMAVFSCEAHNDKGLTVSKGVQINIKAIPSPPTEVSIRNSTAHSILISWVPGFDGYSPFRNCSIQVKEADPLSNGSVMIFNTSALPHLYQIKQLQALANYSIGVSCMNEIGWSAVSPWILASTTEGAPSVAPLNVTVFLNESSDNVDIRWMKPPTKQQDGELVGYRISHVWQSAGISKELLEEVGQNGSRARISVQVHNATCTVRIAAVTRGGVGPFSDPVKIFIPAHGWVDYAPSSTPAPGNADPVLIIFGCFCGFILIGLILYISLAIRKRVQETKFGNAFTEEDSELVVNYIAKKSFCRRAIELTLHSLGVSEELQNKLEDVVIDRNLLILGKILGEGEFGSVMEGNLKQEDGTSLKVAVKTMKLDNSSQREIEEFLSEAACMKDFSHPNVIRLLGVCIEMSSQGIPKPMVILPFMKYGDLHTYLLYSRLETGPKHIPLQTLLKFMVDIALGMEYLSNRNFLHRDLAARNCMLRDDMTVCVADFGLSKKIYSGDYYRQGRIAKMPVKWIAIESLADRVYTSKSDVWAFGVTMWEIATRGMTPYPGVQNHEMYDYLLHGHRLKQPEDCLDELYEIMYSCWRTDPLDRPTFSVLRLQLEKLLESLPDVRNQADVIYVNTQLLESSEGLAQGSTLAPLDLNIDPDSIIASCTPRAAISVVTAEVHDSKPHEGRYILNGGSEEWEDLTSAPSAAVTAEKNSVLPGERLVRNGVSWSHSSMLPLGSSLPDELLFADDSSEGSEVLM
Method in brief: as §1

[1] = target: T2, RSK1(Kin.Dom.1-N-terminal) (Homo sapiens, UniProt Q15418); conditions: read-out: 7 at 1 µM % inhibition
T2 construct: gene RPS6KA1; Kin.Dom.1-N-terminal
Method in brief: as §1

CAMK1G = CAMK1G (Homo sapiens, UniProt Q96NX5); conditions: read-out: 7 at 1 µM % inhibition
Method in brief: as §1

BMPR1B = BMPR1B (Homo sapiens, UniProt O00238); conditions: read-out: 7 at 1 µM % inhibition
BMPR1B, sequence (O00238 whole entry): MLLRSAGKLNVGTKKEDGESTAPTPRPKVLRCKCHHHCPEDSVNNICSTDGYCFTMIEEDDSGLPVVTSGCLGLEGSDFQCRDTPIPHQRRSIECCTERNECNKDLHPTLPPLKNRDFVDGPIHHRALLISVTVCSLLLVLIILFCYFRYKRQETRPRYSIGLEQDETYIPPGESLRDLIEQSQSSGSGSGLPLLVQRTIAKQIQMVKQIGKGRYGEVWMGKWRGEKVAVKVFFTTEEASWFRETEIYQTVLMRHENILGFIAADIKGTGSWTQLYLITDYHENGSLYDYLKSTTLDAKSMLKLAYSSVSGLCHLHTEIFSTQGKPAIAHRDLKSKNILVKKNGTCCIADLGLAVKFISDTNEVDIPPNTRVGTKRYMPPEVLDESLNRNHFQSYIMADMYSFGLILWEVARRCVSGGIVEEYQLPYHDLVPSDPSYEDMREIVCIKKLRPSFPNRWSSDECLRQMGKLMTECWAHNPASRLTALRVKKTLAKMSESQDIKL
Method in brief: as §1

[2] = target: T3, JAK2(JH1domain-catalytic) (Homo sapiens, UniProt O60674); conditions: read-out: 7 at 1 µM % inhibition
T3 construct: JH1domain-catalytic
Method in brief: as §1

PIK3CA(H1047L) = PIK3CA(H1047L) (Homo sapiens, UniProt P42336, H1047L); conditions: read-out: 7 at 1 µM % inhibition
Method in brief: as §1

ADCK4 = target: T4, ADCK4 (Homo sapiens, UniProt Q96D53); conditions: read-out: 7 at 1 µM % inhibition
T4 construct: gene COQ8B
T4 sequence (Q96D53 whole entry): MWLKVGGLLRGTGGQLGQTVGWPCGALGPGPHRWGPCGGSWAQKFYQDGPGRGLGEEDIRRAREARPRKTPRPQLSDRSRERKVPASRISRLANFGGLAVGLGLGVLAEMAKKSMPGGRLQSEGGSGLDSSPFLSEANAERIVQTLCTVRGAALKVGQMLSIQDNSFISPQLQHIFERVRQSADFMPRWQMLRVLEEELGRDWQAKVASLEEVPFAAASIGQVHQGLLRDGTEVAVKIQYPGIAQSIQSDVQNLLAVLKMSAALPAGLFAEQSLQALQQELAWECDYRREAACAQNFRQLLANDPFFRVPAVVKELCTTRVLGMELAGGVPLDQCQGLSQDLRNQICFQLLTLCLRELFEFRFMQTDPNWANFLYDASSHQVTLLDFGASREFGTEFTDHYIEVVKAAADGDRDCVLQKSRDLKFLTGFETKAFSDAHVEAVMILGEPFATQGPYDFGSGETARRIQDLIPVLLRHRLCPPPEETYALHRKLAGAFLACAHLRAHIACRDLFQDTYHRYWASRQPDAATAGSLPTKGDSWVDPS
Method in brief: as §1

FGFR4 = FGFR4 (Homo sapiens, UniProt P22455); conditions: read-out: 7 at 1 µM % inhibition
Method in brief: as §1

DAPK1 = DAPK1 (Homo sapiens, UniProt P53355); conditions: read-out: 7 at 1 µM % inhibition
Method in brief: as §1

[3] = target: T5, ABL1(T315I)-nonphosphorylated (Homo sapiens, UniProt P00519, T315I); conditions: read-out: 7 at 1 µM % inhibition
T5 construct: nonphosphorylated
Method in brief: as §1

CDKL5 = CDKL5 (Homo sapiens, UniProt O76039); conditions: read-out: 7 at 1 µM % inhibition
CDKL5, sequence (O76039 whole entry): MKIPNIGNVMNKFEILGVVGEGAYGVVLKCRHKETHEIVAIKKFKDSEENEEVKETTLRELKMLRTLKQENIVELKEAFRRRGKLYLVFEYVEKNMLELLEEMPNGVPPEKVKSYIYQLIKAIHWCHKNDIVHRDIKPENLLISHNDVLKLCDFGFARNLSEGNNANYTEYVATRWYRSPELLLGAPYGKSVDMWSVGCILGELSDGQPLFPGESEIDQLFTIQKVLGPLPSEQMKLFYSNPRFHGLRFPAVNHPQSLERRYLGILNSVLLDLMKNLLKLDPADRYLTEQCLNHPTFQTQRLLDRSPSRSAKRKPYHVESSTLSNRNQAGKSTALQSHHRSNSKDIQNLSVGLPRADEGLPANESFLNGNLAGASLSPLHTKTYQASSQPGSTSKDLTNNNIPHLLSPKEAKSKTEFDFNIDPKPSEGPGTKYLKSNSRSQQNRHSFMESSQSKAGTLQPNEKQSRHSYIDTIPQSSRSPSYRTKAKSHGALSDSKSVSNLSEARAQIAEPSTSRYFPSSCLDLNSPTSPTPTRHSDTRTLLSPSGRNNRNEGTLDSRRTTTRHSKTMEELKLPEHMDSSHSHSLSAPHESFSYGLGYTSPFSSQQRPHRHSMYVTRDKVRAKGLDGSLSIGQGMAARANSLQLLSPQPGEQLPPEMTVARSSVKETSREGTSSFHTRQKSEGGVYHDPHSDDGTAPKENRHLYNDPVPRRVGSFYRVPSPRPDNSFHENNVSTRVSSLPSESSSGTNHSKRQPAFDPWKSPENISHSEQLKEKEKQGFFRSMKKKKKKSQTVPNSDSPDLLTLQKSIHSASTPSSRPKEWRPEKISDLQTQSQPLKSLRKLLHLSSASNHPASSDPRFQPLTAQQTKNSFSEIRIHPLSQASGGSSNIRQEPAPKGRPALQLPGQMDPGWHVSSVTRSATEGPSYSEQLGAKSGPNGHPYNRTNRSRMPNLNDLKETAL
Method in brief: as §1

JNK2 = target: T6, JNK2 (Homo sapiens, UniProt P45984); conditions: read-out: 7 at 1 µM % inhibition
T6 construct: gene MAPK9
T6 sequence (P45984 whole entry): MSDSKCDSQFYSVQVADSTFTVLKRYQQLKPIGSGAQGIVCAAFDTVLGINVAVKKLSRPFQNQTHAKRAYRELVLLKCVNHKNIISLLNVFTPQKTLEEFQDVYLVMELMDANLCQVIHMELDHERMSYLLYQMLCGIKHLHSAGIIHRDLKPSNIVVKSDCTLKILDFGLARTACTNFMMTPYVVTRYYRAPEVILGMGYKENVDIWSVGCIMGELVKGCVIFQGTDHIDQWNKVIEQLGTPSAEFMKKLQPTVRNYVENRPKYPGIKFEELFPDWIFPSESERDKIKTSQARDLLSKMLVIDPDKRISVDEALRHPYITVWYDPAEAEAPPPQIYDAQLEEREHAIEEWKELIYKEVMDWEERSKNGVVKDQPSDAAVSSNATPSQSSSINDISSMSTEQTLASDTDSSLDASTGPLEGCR
Method in brief: as §1

PKNB(M.tuberculosis) = PKNB(M.tuberculosis) (Mycobacterium tuberculosis, UniProt P9WI81); conditions: read-out: 7 at 1 µM % inhibition (pathogen kinases)
Method in brief: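 Values come from single-concentration (1 µM) profiling in the Eurofins DiscoverX KINOMEscan competition-binding platform, which covers over 400 kinases.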

ICK = target: T7, ICK (Homo sapiens, UniProt Q9UPZ9); conditions: read-out: 7 at 1 µM % inhibition
T7 construct: gene CILK1
T7 sequence (Q9UPZ9 whole entry): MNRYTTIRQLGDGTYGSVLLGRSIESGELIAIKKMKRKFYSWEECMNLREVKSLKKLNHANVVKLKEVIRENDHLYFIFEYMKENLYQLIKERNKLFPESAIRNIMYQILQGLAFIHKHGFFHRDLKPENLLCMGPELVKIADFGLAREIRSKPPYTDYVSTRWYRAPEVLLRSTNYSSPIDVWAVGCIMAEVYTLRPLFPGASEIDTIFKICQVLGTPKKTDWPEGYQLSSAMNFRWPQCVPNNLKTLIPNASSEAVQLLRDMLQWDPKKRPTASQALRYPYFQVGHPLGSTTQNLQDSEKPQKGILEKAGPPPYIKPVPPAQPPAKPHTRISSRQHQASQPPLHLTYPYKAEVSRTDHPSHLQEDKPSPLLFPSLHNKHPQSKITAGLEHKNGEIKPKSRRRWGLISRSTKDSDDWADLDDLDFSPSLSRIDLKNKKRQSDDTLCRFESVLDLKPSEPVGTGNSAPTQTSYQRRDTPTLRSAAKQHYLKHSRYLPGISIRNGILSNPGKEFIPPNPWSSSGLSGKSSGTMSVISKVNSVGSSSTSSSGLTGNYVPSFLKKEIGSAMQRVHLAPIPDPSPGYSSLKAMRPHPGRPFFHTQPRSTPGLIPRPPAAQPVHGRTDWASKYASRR
Method in brief: as §1

CDK4-cyclinD1 = target: T8, CDK4-cyclinD1 (Homo sapiens, UniProt P11802); conditions: read-out: 7 at 1 µM % inhibition
T8 construct: cyclinD1
Method in brief: as §1

MKNK1 = MKNK1 (Homo sapiens, UniProt Q9BUB5); conditions: read-out: 7 at 1 µM % inhibition
Method in brief: as §1

RET(M918T) = RET(M918T) (Homo sapiens, UniProt P07949, M918T); conditions: read-out: 7 at 1 µM % inhibition
Method in brief: as §1

TLK1 = TLK1 (Homo sapiens, UniProt Q9UKI8); conditions: read-out: 7 at 1 µM % inhibition
Method in brief: as §1

BMPR2 = BMPR2 (Homo sapiens, UniProt Q13873); conditions: read-out: 7 at 1 µM % inhibition
Method in brief: as §1

NEK6 = NEK6 (Homo sapiens, UniProt Q9HC98); conditions: read-out: 7 at 1 µM % inhibition
Method in brief: as §1

SgK110 = target: T9, SgK110 (Homo sapiens, UniProt P0C264); conditions: read-out: 7 at 1 µM % inhibition
T9 construct: gene SBK3
T9 sequence (P0C264 whole entry): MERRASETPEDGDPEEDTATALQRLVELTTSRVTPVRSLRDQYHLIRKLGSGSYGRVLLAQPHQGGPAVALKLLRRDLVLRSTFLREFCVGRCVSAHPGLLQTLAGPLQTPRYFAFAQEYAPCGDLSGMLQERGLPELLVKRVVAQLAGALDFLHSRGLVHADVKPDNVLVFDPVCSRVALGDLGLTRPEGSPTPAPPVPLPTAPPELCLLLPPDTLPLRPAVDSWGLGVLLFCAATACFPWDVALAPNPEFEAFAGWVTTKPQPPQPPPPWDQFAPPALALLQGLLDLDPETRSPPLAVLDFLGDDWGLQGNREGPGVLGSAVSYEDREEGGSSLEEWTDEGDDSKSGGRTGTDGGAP
Method in brief: as §1

## CNS(=O)(=O)c1ccc(N(C)C)c(Nc2ncnc3cc(OC)c(OC)cc23)c1 [compound 7, 3-((6,7-dimethoxyquinazolin-4-yl)amino)-4-(dimethylamino)-N-methylbenzenesulfonamide]
SRPK3
  inhibition at 1 µM: 0%
HIPK4
  inhibition at 1 µM: 13%
VPS34
  inhibition at 1 µM: 18%
MERTK
  inhibition at 1 µM: 0%
[1]
  inhibition at 1 µM: 2%
CAMK1G
  inhibition at 1 µM: 0%
BMPR1B
  inhibition at 1 µM: 34%
[2]
  inhibition at 1 µM: 9%
PIK3CA(H1047L)
  inhibition at 1 µM: 0%
ADCK4
  inhibition at 1 µM: 0%
FGFR4
  inhibition at 1 µM: 0%
DAPK1
  inhibition at 1 µM: 0%
[3]
  inhibition at 1 µM: 33%
CDKL5
  inhibition at 1 µM: 9%
JNK2
  inhibition at 1 µM: 0%
PKNB(M.tuberculosis)
  inhibition at 1 µM: 23%
ICK
  inhibition at 1 µM: 7%
CDK4-cyclinD1
  inhibition at 1 µM: 20%
MKNK1
  inhibition at 1 µM: 10%
RET(M918T)
  inhibition at 1 µM: 0%
TLK1
  inhibition at 1 µM: 0%
BMPR2
  inhibition at 1 µM: 0%
NEK6
  inhibition at 1 µM: 0%
SgK110
  inhibition at 1 µM: 0%
